Earlier results as cited in US20130158028A1, “USE OF STIMULATORS AND ACTIVATORS OF SOLUBLE GUANYLATE CYCLASE FOR TREATING SICKLE-CELL ANEMIA AND CONSERVING BLOOD SUBSTITUTES” (BAYER INTELLECTUAL PROPERTY GMBH, priority 2010, published 2013).

Details: repeated reports

CN1CC(=O)N2[C@H](c3ccc4c(c3)OCO4)c3[nH]c4ccccc4c3C[C@@H]2C1=O [tadalafil, (6R,12aR)-2,3,6,7,12,12a-hexahydro-2-methyl-6-(3,4-methylenedioxyphenyl)pyrazino (1′,2′:1,6) pyrido(3,4-b)indole-1,4-dione]
incidence of back pain: increased incidence of back pain
